Data as given in the SangsterLogP compilation.

Compound	logP
N#Cc1ccccc1	1.56
O=c1[nH]c2ccccc2n1CCCN1CCC(n2c(=O)[nH]c3cc(Cl)ccc32)CC1	3.9
C=CCC1(CC)C(=O)NC(=O)NC1=O	0.95
CC(=O)C(C#N)=NNc1cc(Cl)cc(Cl)c1	4.68
CSCC[C@H](N)C(=O)O	-1.87
O=[N+]([O-])c1cncn1CCN1CCOCC1	0.07
CC(C(=O)O)c1ccc(-c2ccccc2)c(F)c1 (configuration not stated)	4.16
OCCN1CCN(CC/C=C2\c3ccccc3Sc3ccc(Cl)cc32)CC1	4.18
N#Cc1ccc(NC=O)cc1	1.08
CN1CCN(C2=Nc3cc(Cl)ccc3Nc3ccccc32)CC1	3.23
CC(C)Sc1nnc(C(C)C)c(=O)n1N	2.06
c1ccc2c(c1)ccc1c3ccccc3ccc21	5.81
CC1(C)S[C@@H]2[C@H](NC(=O)COc3ccccc3)C(=O)N2[C@H]1C(=O)O	2.09
Cc1cc(Cl)ccc1NN=C(C#N)C(=O)C(C)C	4.31
O=[N+]([O-])c1ccc(O)c([N+](=O)[O-])c1	1.67
C=CCNCC	0.81
c1cncnc1	-0.4
CCOc1ccc(OC(=O)NC)cc1	1.63
NNC(=O)c1ccccc1	0.19
CNC(=O)Oc1ccc(I)cc1	2.46
Cc1cc(C(=O)NN)ccn1	-0.37
O=Nc1ccc2ccccc2c1O	2.46
O=C(c1ccccc1)c1ccc(O)cc1	3.07
N#Cc1ccccc1O	1.61
Nc1ncnc2c1ncn2[C@H]1C[C@H](O)[C@@H](CO)O1	-0.55
Nc1nc(O)c2ncn([C@H]3CC[C@@H](CO)O3)c2n1	-1.01

Compound	logP
c1ccc2c(c1)ccc1ccccc12	4.46
C[C@]12C[C@H](O)[C@H]3[C@@H](CCC4=CC(=O)CC[C@@]43C)[C@@H]1CC[C@@H]2C(=O)CO	1.94
N[C@@H](Cc1cnc[nH]1)C(=O)O	-3.32
CCc1cccc(OCC(=O)O)c1	2.25
OCC(F)(F)F	0.41
N=c1[nH]c(=O)c2ncn([C@@H]3C=C[C@@H](CO)O3)c2[nH]1	-1.21
c1ccc2c(c1)Nc1ccccc1S2	4.15
CN1CCc2cccc3c2C1Cc1ccc(O)c(O)c1-3 (configuration not stated)	2.3
CNC(C)Cc1ccccc1 (configuration not stated)	2.07
CCC(Cc1ccccn1)C(N)=O (configuration not stated)	-0.01
COc1cccc(CC(C)N)c1OC (configuration not stated)	1.49
CNC(=O)c1ccccc1	0.86
Nc1ccncc1	0.26
CCCC(C)=O	0.91
COCc1ccccc1	1.92
O=[N+]([O-])c1cc(Cl)c(O)c(Cl)c1	2.94
CNC(=O)Oc1ccc(C(C)C)c(C)c1	3.11
Cc1ccc2cc(C)c(C)cc2c1	4.73
CCOc1cccc(OC(=O)NC)c1	1.75
c1cncc([C@@H]2CCCCN2)c1	0.97
CNCC(O)c1ccc(O)c(O)c1 (configuration not stated)	-1.37
COc1ccc(O)cc1	1.58
Cc1ccc(N(C)C)cc1	2.81
CSc1ccccc1	2.74
NCc1cccnc1	-0.32
CSc1nnc(-c2ccccc2)c(=O)n1N	1.66

Compound	logP
Cc1cnccn1	0.21
Cc1cccc(OCC(=O)O)c1	1.78
Nc1cccc(S(N)(=O)=O)c1	-0.38
CCC(C)c1ccccc1OC(=O)NC (configuration not stated)	2.78
CC(C)(C)CO	1.31
Nc1ccc(C(=O)O)cc1Br	1.4
C[N+]1([O-])C2CCC1CC(OC(=O)C(CO)c1ccccc1)C2 (configuration not stated)	0.98
CCN(CC)CCOC(=O)c1ccc(N)cc1	2.14
O=C(O)CCCCCCCC(=O)O	1.57
c1ccc2c(c1)Cc1ccccc1-2	4.18
O=C1NC(=O)C(c2ccccc2)(c2ccccc2)C(=O)N1	1.96
OCC1OC(n2cnc3c(S)ncnc32)C(O)C1O (configuration not stated)	-0.6
COC(=O)C(C#N)=NNc1c(Cl)cc(C(F)(F)F)cc1Cl	4.36
c1cnc2c(c1)ccc1ncccc12	2.51
NCC(F)(F)F	0.24
CCCCOC(=O)c1ccc(O)cc1	3.57
COc1ccccc1	2.11
CCn1cc(C(=O)O)c(=O)c2ccc(C)nc21	1.59
O=C(O)COc1ccc(F)cc1	1.64
O=C1c2ccccc2C(=O)C1c1ccccc1	2.9
Nc1ccc(C(F)(F)F)cc1	1.95
Nc1ccn([C@H]2C[C@H](F)[C@@H](CO)O2)c(=O)n1	-0.89
O=C1C=C(Cl)C(=O)c2ccccc21	2.29
CN1c2ccccc2C=CC1O (configuration not stated)	1.45
CC(=O)Nc1ccccc1C(=O)O	1.88
